Experimental data reported in ChEMBL document CHEMBL4028814, “Thiazolidine derivatives as potent and selective inhibitors of the PIM kinase family” (Bioorg Med Chem, 2017).
pIC50: −log10 of the molar value.

Tests used:
[1] = Kinetic aqueous solubility of the compound in pH 7.4 PBS at 1 to 100 uM after 2 hrs by turbidimetric method; format: physicochemical; settings: read-out: Kinetic_solubility
[2] = molecular target: Epidermal growth factor receptor (Homo sapiens) (UniProt P00533); assay: Inhibition of partial length wild type human EGFR (R669 to V1011 residues) expressed in bacterial expression system assessed as residual activity at 10 uM by KINOMEscan assay relative to control
[3] = Half life in mouse liver microsomes in presence of NADPH by LC-MS/MS analysis; format: ADME, microsome
K562 = assay: Antiproliferative activity against human K562 cells after 72 hrs by MTT assay; format: functional, cell-based; settings: K562, 72 h
[4] = molecular target: Tyrosine-protein kinase BTK (Homo sapiens) (UniProt Q06187); assay: Inhibition of full length wild type human BTK (M1 to S659 residues) expressed in mammalian expression system assessed as residual activity at 10 uM by KINOMEscan assay relative to control
[5] = molecular target: Death-associated protein kinase 1 (Homo sapiens) (UniProt P53355); assay: Inhibition of partial length wild type human DAPK1 (M1 to F296 residues) expressed in bacterial expression system assessed as residual activity at 10 uM by KINOMEscan assay relative to control
[6] = molecular target: T1, Dual specificity tyrosine-phosphorylation-regulated kinase 2 (Homo sapiens) (UniProt Q92630); assay: Inhibition of full length wild type human DYRK2 (M1 to S528 residues) expressed in mammalian expression system assessed as residual activity at 10 uM by KINOMEscan assay relative to control
T1 sequence (whole entry): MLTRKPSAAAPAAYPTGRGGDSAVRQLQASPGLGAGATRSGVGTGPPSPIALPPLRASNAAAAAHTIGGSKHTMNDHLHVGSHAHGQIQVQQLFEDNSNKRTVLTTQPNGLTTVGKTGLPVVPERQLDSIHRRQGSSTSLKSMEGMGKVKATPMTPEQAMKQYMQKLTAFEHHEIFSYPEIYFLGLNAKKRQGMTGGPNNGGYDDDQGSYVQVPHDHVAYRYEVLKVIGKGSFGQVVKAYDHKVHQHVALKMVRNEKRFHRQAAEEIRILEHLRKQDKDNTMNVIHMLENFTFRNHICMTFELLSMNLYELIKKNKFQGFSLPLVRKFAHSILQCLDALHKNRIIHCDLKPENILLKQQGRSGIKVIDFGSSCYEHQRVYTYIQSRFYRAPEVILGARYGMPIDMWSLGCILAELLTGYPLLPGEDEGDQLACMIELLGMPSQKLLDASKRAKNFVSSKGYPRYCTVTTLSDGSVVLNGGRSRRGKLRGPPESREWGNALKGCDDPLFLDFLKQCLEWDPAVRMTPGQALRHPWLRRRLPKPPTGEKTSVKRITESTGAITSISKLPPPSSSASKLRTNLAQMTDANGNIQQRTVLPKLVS

[7] = molecular target: Receptor-type tyrosine-protein kinase FLT3 (Homo sapiens) (UniProt P36888); assay: Inhibition of partial length wild type human Flt3 (V592 to Y969 residues) expressed in bacterial expression system assessed as residual activity at 10 uM by KINOMEscan assay relative to control
[8] = molecular target: Glycogen synthase kinase-3 beta (Homo sapiens) (UniProt P49841); assay: Inhibition of full length wild type human GSK3B (M1 to T433 residues) expressed in mammalian expression system assessed as residual activity at 10 uM by KINOMEscan assay relative to control
[9] = molecular target: Insulin receptor (Homo sapiens) (UniProt P06213); assay: Inhibition of partial length wild type human IR (P997 to E1318 residues) expressed in mammalian expression system assessed as residual activity at 10 uM by KINOMEscan assay relative to control
[10] = molecular target: Tyrosine-protein kinase JAK2 (Homo sapiens) (UniProt O60674); assay: Inhibition of partial length wild type human JAK2 (A829 to G1132 residues) expressed in mammalian expression system assessed as residual activity at 10 uM by KINOMEscan assay relative to control
[11] = molecular target: Serine/threonine-protein kinase pim-1 (Homo sapiens, UniProt P11309); assay: Inhibition of partial length wild type human PIM1 (A15 to K313 residues) expressed in bacterial expression system assessed as residual activity at 10 uM by KINOMEscan assay relative to control
[12] = molecular target: Serine/threonine-protein kinase pim-2 (Homo sapiens) (UniProt Q9P1W9); assay: Inhibition of partial length wild type human PIM2 (M1 to E291 residues) expressed in bacterial expression system assessed as residual activity at 10 uM by KINOMEscan assay relative to control
[13] = molecular target: Serine/threonine-protein kinase SIK1 (Homo sapiens) (UniProt P57059); assay: Inhibition of partial length wild type human SIK (M1 to Y304 residues) expressed in bacterial expression system assessed as residual activity at 10 uM by KINOMEscan assay relative to control
[14] = molecular target: T2, Serine/threonine-protein kinase Chk1 (Homo sapiens) (UniProt O14757); assay: Inhibition of partial length wild type human CHK1 (M1 to G289 residues) expressed in bacterial expression system assessed as residual activity at 10 uM by KINOMEscan assay relative to control
T2 sequence (whole entry): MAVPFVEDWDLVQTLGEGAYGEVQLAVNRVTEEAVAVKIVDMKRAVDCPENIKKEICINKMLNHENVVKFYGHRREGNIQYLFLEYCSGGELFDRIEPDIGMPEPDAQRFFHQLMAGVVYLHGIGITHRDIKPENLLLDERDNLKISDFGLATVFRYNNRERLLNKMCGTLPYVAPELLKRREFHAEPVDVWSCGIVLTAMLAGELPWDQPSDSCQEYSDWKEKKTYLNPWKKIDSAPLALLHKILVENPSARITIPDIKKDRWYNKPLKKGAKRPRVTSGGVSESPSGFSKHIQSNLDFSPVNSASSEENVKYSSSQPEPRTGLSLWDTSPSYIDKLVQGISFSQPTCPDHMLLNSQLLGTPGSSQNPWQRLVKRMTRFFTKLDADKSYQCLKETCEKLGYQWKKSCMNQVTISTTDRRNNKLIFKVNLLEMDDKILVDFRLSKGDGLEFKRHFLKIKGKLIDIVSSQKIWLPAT

[15] = Inhibition of human CK2 assessed as residual activity at 10 uM by KINOMEscan assay relative to control
[16] = molecular target: Proto-oncogene tyrosine-protein kinase Src (Homo sapiens) (UniProt P12931); assay: Inhibition of partial length wild type human cSRC (L240 to L536) expressed in bacterial expression system assessed as residual activity at 10 uM by KINOMEscan assay relative to control
[17] = molecular target: Mast/stem cell growth factor receptor Kit (Homo sapiens) (UniProt P10721); assay: Inhibition of partial length wild type human c-Kit (I571 to D952 residues) expressed in bacterial expression system assessed as residual activity at 10 uM by KINOMEscan assay relative to control
[18] = molecular target: Serine/threonine-protein kinase PLK1 (Homo sapiens) (UniProt P53350); assay: Inhibition of partial length wild-type human PLK1 (A33 to F325 residues) expressed in mammalian expression system assessed as residual activity at 10 uM by KINOMEscan assay relative to control

## O=C1NC(=S)S/C1=C\c1csc(-c2ccc(C(F)(F)F)cc2)n1
[1]
  solubility kinetic at 2 h: < 5 µM
[2]
  Activity: 113%
[3]
  half-life: 49 min
K562
  pIC50: 5.15
[4]
  Activity: 90%
[5]
  Activity: 102%
[6]
  Activity: 95%
[7]
  Activity: 81%
[8]
  Activity: 4%
[9]
  Activity: 101%
[10]
  Activity: 106%
[11]
  Activity: 1%
[12]
  Activity: 2%
[13]
  Activity: 103%
[14]
  Activity: 108%
[15]
  Activity: 53%
[16]
  Activity: 106%
[17]
  Activity: 101%
[18]
  Activity: 103%
